Measured values as given in patent US4022900A, “Compositions containing 1,2,3,4-tetrahydroisoquinolines used as hypotensive agents” (Marion Laboratories, Inc., priority 1972, dated 1977).
Structures can show the parent of a compound that is named as a salt.

Legend:
[1] = test system: systolic blood pressure of deoxycorticosterone acetate hypertensive rats; test: Hypotensive activity in DCA/saline hypertensive rats (systolic blood pressure, tail cuff); type: in vivo, rat (male, CD strain); conditions: for Lowering of Blood Pressure in Hypertensive rate in mm's of Hg., 1 hr. / Lowering of Blood Pressure in Hypertensive rate in mm's of Hg., 2 hrs. / Lowering of Blood Pressure in Hypertensive rate in mm's of Hg., 4 hrs. / Lowering of Blood Pressure in Hypertensive rate in mm's of Hg., 24 hrs. / compounds which appear most active from Table I: 50 mg/kg intraperitoneal; for Lowering of Blood Pressure in Hypertensive rate in mm's of Hg., 1 hr. / Lowering of Blood Pressure in Hypertensive rate in mm's of Hg., 2 hrs. / Lowering of Blood Pressure in Hypertensive rate in mm's of Hg., 4 hrs. / Lowering of Blood Pressure in Hypertensive rate in mm's of Hg., 24 hrs.: change vs predrug control, six rats; for compounds which appear most active from Table I: qualitative ranking
Procedure: Hypertension was produced in weanling (30-day old) male rats of the CD strain obtained from the Charles River Breeding Laboratories (Wilmington, Mass.) by subcutaneously implanting about the dorsal surface of the neck a pellet of deoxycorticosterone acetate (DCA) containing 10 mg DCA in a mixture of Carbowax 4000 (Union Carbide) and Flexowax C light (Glyco Products). Their drinking water was replaced by a 1% sodium chloride solution, a procedure known to facilitate the development of an experimental hypertension, and they had free access to chow. Systolic blood pressure in the caudal arteries was measured indirectly by a pneumatic pulse transducer and a tail pressure cuff on a Physiograph Four recorder (Narco Bio-Systems, Inc., Houston, Texas) in unanesthetized but restrained rats prewarmed to 40° C., 10-15 minutes prior to the determination. The rats were kept at a temperature of 40° C. for all determinations of systolic pressure in an attempt to minimize variations in blood pressure due to marked changes in arterial tone caused by changes in temperature. Blood pressures were measured at intervals in the DCA-treated rats given saline and in non-treated control rats. After 20 days, the mean systolic pressure in the DCA-treated rats was above 150 mm Hg. Hypertension was regarded as being established in the rats at this stage and they were at intervals, usually beginning with the 30th day after DCA-implant in testing for hypotensive activity. Following a series of control blood pressure readings, a dose of 50 mg/kg of the compound under investigation was administered by intraperitoneal injection either in solution or as a suspension in 1% tragacanth solution to groups of six hypertensive rats. Blood pressures were redetermined at 1, 2, 4 and 24 hour periods following injection. At each interval, the systolic pressure was measured a minimum of five times in each rat and the average value was calculated. Mean values for the group were calculated from the individual average values and compared with their predrug control levels. The statistical significance of the changes produced by the compounds, in the doses employed, was tested by the "t" test as well as by an analysis of variance. The reductions in blood pressure obtained with the indicated representative tetrahydroisoquinoline compounds are shown in Table I. The code number for the compound and the example herein showing its preparation are both given in Table I.
(§1) Additional compounds have been tested. The toxicity data for the additional compounds tested, and their identity, is given in the following Table II while the blood pressure lowering activity of the compounds is given in the following Table III. The heading "Example Number" in the tables refers to the working example herein which discloses the compounds and its preparation. The test procedure used for determining the blood pressure lowering activity of the compounds is the same as that previously set forth herein. However, the figures in Table III are expressed as percentage change in blood pressure, rather than in mm of mercury change in blood pressure, as presented in Table I herein.

[2] = Acute toxicity (LD50) in the mouse; conditions: in vivo; for LD50: Table I, unit, species and route not given
Procedure: 5-(3,4,5-trimethoxybenzamido)-2-methyl-1,2,3,4-tetrahydroisoquinoline (M-20) in mice has an LD-50 of about 125 to 250 mg/kg intraperitoneally.
as §1
Approximate Acute Toxicity (24 hrs.)
(a) Suspension in 1% tragacanth
(b) Solution in distilled water
(c) Solubilized with the aid of dilute acid

SMILES	Lowering of Blood Pressure in Hypertensive rate in mm's of Hg., 1 hr. [1]	Lowering of Blood Pressure in Hypertensive rate in mm's of Hg., 2 hrs. [1]	Lowering of Blood Pressure in Hypertensive rate in mm's of Hg., 4 hrs. [1]	Lowering of Blood Pressure in Hypertensive rate in mm's of Hg., 24 hrs. [1]	LD50 [2] [mg/kg]	compounds which appear most active from Table I [1]	Percent Change in Pressure from Control ± S.E., 2 Hours ([1]; 50 mg/kg i.p., 2 hours, systolic pressure, * <0.05 significance (Newman-Keuls)) [%]	Percent Change in Pressure from Control ± S.E., 4 Hours ([1]; 50 mg/kg i.p., 4 hours, systolic pressure, * <0.05 significance (Newman-Keuls)) [%]	Percent Change in Pressure from Control ± S.E., 24 Hours ([1]; 50 mg/kg i.p., 24 hours, systolic pressure, * <0.05 significance (Newman-Keuls)) [%]	LD50 at 24 h ([2]; ip, 24 hrs, solubilized with the aid of dilute acid, read-out: Approximate Acute Toxicity (24 hrs.) In the Mouse, LD50) [mg/kg]
CN1CCc2c(cccc2NC(=O)c2ccccc2)C1 [M-54, 5-(benzamido)-2-methyl-1,2,3,4-tetrahydroisoquinoline]	-7±7 mm's of Hg	-14±6 mm's of Hg	-15±6 mm's of Hg	-10±3 mm's of Hg	125 to 250					
CN1CCc2c(cccc2NC(=O)c2ccccc2F)C1 [M-68, 5-(2-Fluorobenzamido)-2-methyl-1,2,3,4-tetrahydroisoquinoline]	-13±5 mm's of Hg	-10±5 mm's of Hg	-11±4 mm's of Hg	-20±4 mm's of Hg	250 to 500					
COc1ccc(C(=O)Nc2cccc3c2CCN(C)C3)cc1OC [M-55, 5-(3,4-Dimethyoxybenzamido)-2-methyl-1,2,3,4-tetrahydroisoquinoline]	-32±5 mm's of Hg	-31±5 mm's of Hg	-32±4 mm's of Hg	-20±4 mm's of Hg	125 to 250	most active				
CCCN1CCc2c(cccc2NC(=O)c2ccc(OC)c(OC)c2)C1 [M-47, 5-(3,4-Dimethoxybenzamido)-2-n-propyl-1,2,3,4-tetrahydroisoquinoline]	-35±7 mm's of Hg	-46±11 mm's of Hg	-41±8 mm's of Hg	-22±4 mm's of Hg	250 to 500	most active				
COc1ccc(C(=O)Nc2cccc3c2CCNC3)cc1OC [M-34, 5-(3,4-Dimethoxybenzamido)-1,2,3,4-tetrahydroisoquinoline HCl]	-33±5 mm's of Hg	-28±7 mm's of Hg	-23±4 mm's of Hg	-2±6 mm's of Hg	500 to 1000	most active				
CN1CCc2c(cccc2NC(=O)c2ccccc2[N+](=O)[O-])C1 [M-69, 5-(2-Nitrobenzamido)-2-methyl-1,2,3,4-tetrahydroisoquinoline]							-4.1 ± 3.0	-3.3 ± 4.0	-1.0 ± 3.0	125 to 250
COc1cc(C(=O)Nc2cccc3c2CCNC3)cc(OC)c1OC [M-46, 5-(3,4,5-Trimethoxybenzamido)-1,2,3,4-tetrahydroisoquinoline HCl]	-26±10 mm's of Hg	-25±7 mm's of Hg	-11±4 mm's of Hg	-18±4 mm's of Hg	250 to 500					
COc1cc(C(=O)Nc2ccc3c(c2)CN(C)CC3)cc(OC)c1OC [M-59, 7-(3,4,5-Trimethoxybenzamido)-2-methyl-1,2,3,4-tetrahydroisoquinoline]	-60±7 mm's of Hg	-46±7 mm's of Hg	-34±6 mm's of Hg	-18±7 mm's of Hg	250 to 500	most active				
